Results taken from patent publication US11022604B2, “Dock derived compound against laminin receptor (37 LR) and uses thereof” (Purdue Research Foundation, priority 2017, dated 2021).
Like-named read-outs stand apart in the source and are kept apart here.

Test system: PC-3 cells
Experiment: BrdU incorporation assay
Type: cell-based
Conditions: read-out: IC50, inhibition of BrdU incorporation (proliferation)
Protocol: PC-3 cells were treated with 100 nM to 100 μM C3 for 24 hours and BrdU incorporation was quantified using HRP generated luminescence from an antibody pair recognizing BrdU (n=6, mean±SEM). C3 BrdU signal was normalized to a row where PC-3 cells were exposed to 0.5% DMSO (assay conditions). Curve obtained using GraphPAd Prism as described in the methods.
Cell Viability Screen. PC-3, Endo, TC2-Ras, SH-SY5Y, and LNCaP cells were seeded in 96-well plates at 1,500 cells per well using the Scepter cell counter (EMD Millipore). Cells were continuously incubated with compound using a 6-point dose curve: 100, 57.5, 32.4, 18.6, 10.5, and 6.0 μM in their respective complete media. Cell viability was measured by using the cell counting kit-8 (CCK-8, Dojindo). […] CCK-8 absorbance was measured at 450 nm using a GloMax Multimode Reader (Promega). Readings were performed the day after seeding to normalize for variations in cell seeding and after 96 hours of compound treatment. After each reading, CCK-8 media was removed and replaced with media containing compound as described previously. […] As described previously, an initial baseline CCK-8 reading was performed at 24 hours post seeding to correct for variations in seeding density. First, 450 nm values for each well were subtracted from media only readings to correct for baseline absorbance. […]

- IC50 (24 hours): 10 µM
- IC50 (Homo sapiens, PC-3, 24 h): 10.1 µM
SMILES: O=C(c1cc(F)cc2c1OCOC2)N1CCN(C2c3ccccc3-c3ccccc32)CC1 [Compound C3, [4-(9h-fluoren-9-yl)piperazino](6-fluoro-4h-1,3-benzodioxin-8-yl)methanone]
